In ChEMBL document CHEMBL1275395, “Endoperoxide carbonyl falcipain 2/3 inhibitor hybrids: toward combination chemotherapy of malaria through a single chemical entity” (J Med Chem, 2010) one finds IC50 data, which are given here for 13 molecules.

What is called IC50 is the concentration that gives 50% inhibition.

Assay [1] deals with Plasmodium falciparum. Briefly: Antimalarial activity against Plasmodium falciparum 3D7 infected in human erythrocytes after 4 hrs. In kind it is functional, organism-based. As to conditions: 3D7, 4 h.
Assay [2] is described as follows: Inhibition of Plasmodium falciparum recombinant falcipain-2.
A short description of assay [3]: Inhibition of Plasmodium falciparum recombinant falcipain-3.

*1 amine or outer side, *2 acyl side, *3 side chain or, on linkers, in order; H or OH if unused. Where a SMILES comes first, the peptide text is derived from it. [ ]: non-standard residue; d: D form. The star is where a group is joined. hPhe = N[C@@H](CCc1ccccc1)C(=O)O; Morpholide = C1CN(*)CCO1; Cbz = O=C(OCc1ccccc1)*; CO = O=C([*:1])[*:2]

As to `COCC(=O)[C@H](CCc1ccccc1)NC(=O)[C@H](CC(C)C)NC(=O)OCc1ccccc1`, the IC50 in assay [1] is more than 10000 nM; in assay [2] it was 7150 nM; in assay [3], 5600 nM.
The like results for `COCC(=O)[C@H](Cc1ccccc1)NC(=O)[C@H](CC(C)C)NC(=O)OCc1ccccc1` were, in that order, more than 10000 nM, 1970 nM and 8610 nM.
As to `CCOCC(=O)[C@H](Cc1ccccc1)NC(=O)[C@H](CC(C)C)NC(=O)OCc1ccccc1`, the IC50 in assay [1] is more than 10000 nM; in assay [2], 1960 nM; in assay [3] it was 21600 nM.
Take `CC(C)C[C@H](NC(=O)OCc1ccccc1)C(=O)N[C@@H](CCc1ccccc1)C(=O)COc1ccccc1`: the IC50 was found to be 310 nM in assay [1], 438 nM in assay [2] and 222 nM in assay [3].
Regarding `CC(C)C[C@H](NC(=O)OCc1ccccc1)C(=O)N[C@@H](CCc1ccccc1)[C@H]1OOC2(O1)C1CC3CC(C1)CC2C3` (stereo partly drawn), the results for the IC50 in assay [1], in assay [2] and in assay [3] were 55.5 nM, 425 nM and 947 nM, respectively.
As for `COC[C@@]1([C@H](CCc2ccccc2)NC(=O)[C@H](CC(C)C)NC(=O)OCc2ccccc2)OOC2(O1)C1CC3CC(C1)CC2C3` (stereo partly drawn), the IC50 in assay [1] was 582 nM; in assay [2], less than 11500 nM; in assay [3], less than 19800 nM.
The like results for `COC[C@@]1([C@@H](NC(=O)[C@H](CC(C)C)NC(=O)OCc2ccccc2)c2ccccc2)OOC2(O1)C1CC3CC(C1)CC2C3` (stereo partly drawn) were, in that order, 2560 nM, 1200 nM and 44200 nM.
The corresponding values for `CCOC[C@@]1([C@H](CCc2ccccc2)NC(=O)[C@H](CC(C)C)NC(=O)OCc2ccccc2)OOC2(O1)C1CC3CC(C1)CC2C3` (stereo partly drawn) are 572 nM, less than 8670 nM and less than 24200 nM.
`CCOC[C@@]1([C@@H](NC(=O)[C@H](CC(C)C)NC(=O)OCc2ccccc2)c2ccccc2)OOC2(O1)C1CC3CC(C1)CC2C3` (stereo partly drawn): the IC50 in assay [2] was less than 8580 nM; in assay [3], more than 25000 nM.
For the molecule `CC(C)C[C@@H](C(=O)N[C@@H](CCc1ccccc1)[C@H]1OOC2(O1)C1CC3CC(C1)CC2C3)N1CCOCC1` (stereo partly drawn), the IC50 in assay [1] was found to be 35.3 nM; in assay [2] it was 510 nM; in assay [3], 332 nM.
Turning to `CCOCC(=O)[C@H](CCc1ccccc1)NC(=O)[C@H](CC(C)C)NC(=O)OCc1ccccc1`, the IC50 in assay [1] is more than 10000 nM; in assay [2] it was 2050 nM; in assay [3] it was 853 nM.
In the case of `CC(C)C[C@H](NC(=O)OCc1ccccc1)C(=O)N[C@H](C=O)CCc1ccccc1` (Cbz-Leu-[hPhe]-aldehyde), the IC50 in assay [1] amounted to 27.1 nM; in assay [2], 1.4 nM; in assay [3] it was 199 nM.
Turning to `CC(C)C[C@H](NC(=O)N1CCOCC1)C(=O)N[C@H](C=O)CCc1ccccc1` ({Morpholide-CO}-Leu-[hPhe]-aldehyde), the IC50 is 9.3 nM in assay [1], 16.3 nM in assay [2] and 215 nM in assay [3].
